From paper PMC6158189, “A pharmacological probe identifies cystathionine β-synthase as a new negative regulator for ferroptosis” (Cell Death & Disease, 2018)

Biological target: T1, hCBS-FL (Homo sapiens, UniProt P35520)
T1 sequence (P35520 1-551): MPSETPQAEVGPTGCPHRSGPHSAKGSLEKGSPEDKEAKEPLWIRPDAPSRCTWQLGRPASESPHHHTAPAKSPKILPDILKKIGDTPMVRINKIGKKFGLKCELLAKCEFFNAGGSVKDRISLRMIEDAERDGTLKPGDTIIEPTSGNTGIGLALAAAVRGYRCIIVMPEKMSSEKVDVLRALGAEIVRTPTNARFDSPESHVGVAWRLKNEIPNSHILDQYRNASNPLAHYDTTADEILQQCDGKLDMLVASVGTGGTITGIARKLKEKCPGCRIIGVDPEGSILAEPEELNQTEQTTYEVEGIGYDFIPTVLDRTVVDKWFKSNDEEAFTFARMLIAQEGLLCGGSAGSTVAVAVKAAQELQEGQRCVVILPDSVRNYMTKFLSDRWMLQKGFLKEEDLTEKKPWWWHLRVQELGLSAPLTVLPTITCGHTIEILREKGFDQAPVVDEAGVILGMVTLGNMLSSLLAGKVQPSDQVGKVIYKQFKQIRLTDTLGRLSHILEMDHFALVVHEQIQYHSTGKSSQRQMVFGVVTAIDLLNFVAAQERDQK
Assay: H2S in HEK293T cells transiently expressing hCBS (AzMC probe)
Format: cell-based
Details: 10 μM, 8 h
Experimental: HEK293T cells were transiently transfected with empty vector (EV, i and ii), hCBS-FL (iii and iv) or hCSE (v and vi) plasmids, followed by incubation with DMSO (i–iii and v) or 10 μM CH004 (iv and vi) for 8 h before staining with 50 μM AzMC, a H2S-specific probe (“Materials and Methods” section). For larger fluorescent and bright-field images, please see Supplementary Figure 4. The expression levels of hCBS or hCSE in HEK293T cells after transient transfections were determined by western blotting using an anti-CBS antibody (3E1, 1:2000; Abnova) or anti-CSE antibody (1:500, GeneTex). The densities of protein bands for hCBS or hCSE in the blots were quantified with the ImageJ software (National Institutes of Health, Bethesda, MD, USA) and expressed as ratios of respective control (EV group). […] The fluorescent images of the H2S (blue) were accordingly quantified (“Materials and Methods” section) with ImageJ. […] A representative fluorescence image from three independent experiments is shown. […]
H2S levels in living cells were detected using a H2S-specific fluorescent probe according to a protocol described previously[31],[55]. […] After incubation with 50 μM AzMC at 37 °C for 30 min, the cells were washed 4 times with PBS, and the fluorescent images were recorded with excitation by 405 nm laser by using a A1Si (Nikon) confocal microscope. […]

Question: `Cn1nc(Cc2ccccc2)nc2c(=O)n(C)c(=O)nc1-2` [CH004, 3-benzyl-1,6-dimethylpyrimido[5,4-e][1,2,4]triazine-5,7(1H,6H)-dione] was tested. Which “decrease in H2S” value did it give?
Answer: ~ 50%
